Measurements taken from patent US10456407B2, “Combination therapy for treating cancer” (Epizyme, Inc., priority 2015, dated 2019).

Legend:
Format in all cases: cell-based
SU-DHL10 cells = test: RT2 Glucocorticoid signaling PCR array, SU-DHL10 (SUDHL10) cell line (Table 4d); conditions: SUDHL10, 4 days, vs DMSO
SMARCB1 protein levels = test: SMARCB1 (INI1) western blot in lymphoma cells; conditions: single agent treatment
From the text: Glucocorticoid bound GR molecules move to the nucleus and can act as either transcriptional activator or repressor, depending on the cellular environment. […] Accessibility to GR binding sites can further be enhanced by ATP-dependent chromatin remodeling, and the SWI/SNF complex plays a key role in this activity. Not wishing to be bound by a particular theory or a specific mechanism of action, it is conceivable that aberrant chromatin repression, induced by EZH2 mediated hypertrimethylation of H3K27, can block some of the otherwise accessible GR binding sites, interfering with normal GR mediated gene induction or repression.

SU-DHL4 cells = test: RT2 Glucocorticoid signaling PCR array, SU-DHL4 (SUDHL4) cell line (Table 4f); conditions: SUDHL4, 4 days, vs DMSO
RL cells = test: RT2 Glucocorticoid signaling PCR array, RL (Table 4e, printed RI) cell line; conditions: 4 days, Cpd44 1 uM, Pred 10-fold below 4-day IC50, vs DMSO, B2M-normalized

SMILES: CCN(c1cc(-c2ccc(CN3CCOCC3)cc2)cc(C(=O)NCc2c(C)cc(C)[nH]c2=O)c1C)C1CCOCC1 [Compound 44]
- AFF1 ΔΔCT (SU-DHL10 cells): 0.650
- AMPD3 ΔΔCT (SU-DHL10 cells): −0.556
- ANGPTL4 ΔΔCT (SU-DHL10 cells): 0.615
- ANXA4 ΔΔCT (SU-DHL10 cells): −2.475
- BCL6 ΔΔCT (SU-DHL10 cells): 0.640
- CEBPB ΔΔCT (SU-DHL10 cells): 3.019
- CREB1 ΔΔCT (SU-DHL10 cells): −0.051
- CREB3L4 ΔΔCT (SU-DHL10 cells): 0.806
- CREB3 ΔΔCT (SU-DHL10 cells): 0.421
- CYB561 ΔΔCT (SU-DHL10 cells): −2.399
- DUSP1 ΔΔCT (SU-DHL10 cells): 1.099
- EHD3 ΔΔCT (SU-DHL10 cells): −0.855
- FK8PS ΔΔCT (SU-DHL10 cells): 0.042
- FOSL2 ΔΔCT (SU-DHL10 cells): −0.063
- GDPD1 ΔΔCT (SU-DHL10 cells): −1.405
- HNRPLL ΔΔCT (SU-DHL10 cells): 0.071
- KLF9 ΔΔCT (SU-DHL10 cells): −1.127
- KLF13 ΔΔCT (SU-DHL10 cells): −1.636
- NFKBIA ΔΔCT (SU-DHL10 cells): 0.602
- PDCD7 ΔΔCT (SU-DHL10 cells): 0.802
- PDP1 ΔΔCT (SU-DHL10 cells): 0.016
- PER1 ΔΔCT (SU-DHL10 cells): 0.780
- PIK3R1 ΔΔCT (SU-DHL10 cells): 0.831
- PLEKHF1 ΔΔCT (SU-DHL10 cells): 0.469
- POU2F1 ΔΔCT (SU-DHL10 cells): 0.006
- POU2F2 ΔΔCT (SU-DHL10 cells): 0.424
- RA5A3 ΔΔCT (SU-DHL10 cells): 0.385
- RGS2 ΔΔCT (SU-DHL10 cells): 0.072
- RHOB ΔΔCT (SU-DHL10 cells): −1.475
- SESN1 ΔΔCT (SU-DHL10 cells): −1.646
- SGK1 ΔΔCT (SU-DHL10 cells): 1.943
- SLC10A6 ΔΔCT (SU-DHL10 cells): −0.648
- SLC19A2 ΔΔCT (SU-DHL10 cells): −1.413
- SLC22A5 ΔΔCT (SU-DHL10 cells): −1.733
- SNTA1 ΔΔCT (SU-DHL10 cells): 0.531
- SPSB1 ΔΔCT (SU-DHL10 cells): −0.444
- STAT5A ΔΔCT (SU-DHL10 cells): 0.384
- TBL1XR1 ΔΔCT (SU-DHL10 cells): 0.234
- TNFAIP3 ΔΔCT (SU-DHL10 cells): 0.124
- TSC22D3 ΔΔCT (SU-DHL10 cells): 2.709
- USP2 ΔΔCT (SU-DHL10 cells): 0.070
- USPS4 ΔΔCT (SU-DHL10 cells): −0.064
- VLDLR ΔΔCT (SU-DHL10 cells): 4.246
- ZFP36 ΔΔCT (SU-DHL10 cells): 0.215
- ZHX3 ΔΔCT (SU-DHL10 cells): −1.169
- ZNF281 ΔΔCT (SU-DHL10 cells): −0.437
- SMARCB1 protein levels (SMARCB1 protein levels): no effect
- ΔΔCT MERTK (SU-DHL4 cells): 1.977
- ΔΔCT, ADARB1 (SU-DHL4 cells): −1.229
- ΔΔCT, AFF1 (SU-DHL4 cells): −0.276
- ΔΔCT, AMPD3 (SU-DHL4 cells): −1.449
- ΔΔCT, ANGPTL4 (SU-DHL4 cells): −1.331
- ΔΔCT, ANXA4 (SU-DHL4 cells): −2.419
- ΔΔCT, AQP1 (SU-DHL4 cells): 0.331
- ΔΔCT, ARID68 (SU-DHL4 cells): −0.541
- ΔΔCT, ASPH (SU-DHL4 cells): −0.843
- ΔΔCT, ATF4 (SU-DHL4 cells): 0.146
- ΔΔCT, CEBPA (SU-DHL4 cells): −2.510
- ΔΔCT, CREB1 (SU-DHL4 cells): −0.313
- ΔΔCT, CREB3 (SU-DHL4 cells): −0.490
- ΔΔCT, CREB3L4 (SU-DHL4 cells): −0.655
- ΔΔCT, CYB561 (SU-DHL4 cells): −4.236
- ΔΔCT, EHD3 (SU-DHL4 cells): −1.998
- ΔΔCT, FK8PS (SU-DHL4 cells): 0.008
- ΔΔCT, GDPD1 (SU-DHL4 cells): −1.356
- ΔΔCT, GOT1 (SU-DHL4 cells): 0.065
- ΔΔCT, H6PD (SU-DHL4 cells): −0.549
- ΔΔCT, HNRPLL (SU-DHL4 cells): −0.471
- ΔΔCT, IL6R (SU-DHL4 cells): −1.903
- ΔΔCT, IL10 (SU-DHL4 cells): −1.895
- ΔΔCT, KLF9 (SU-DHL4 cells): −1.293
- ΔΔCT, KLF13 (SU-DHL4 cells): −0.534
- ΔΔCT, MT2A (SU-DHL4 cells): −0.309
- ΔΔCT, NR3C1 (SU-DHL4 cells): −0.234
- ΔΔCT, PDCD7 (SU-DHL4 cells): −0.127
- ΔΔCT, PER1 (SU-DHL4 cells): −0.524
- ΔΔCT, PER2 (SU-DHL4 cells): −0.854
- ΔΔCT, PIK3R1 (SU-DHL4 cells): −0.502
- ΔΔCT, PLEKHF1 (SU-DHL4 cells): −1.254
- ΔΔCT, POU2F1 (SU-DHL4 cells): −0.575
- ΔΔCT, RGS2 (SU-DHL4 cells): −0.632
- ΔΔCT, RHOB (SU-DHL4 cells): −1.561
- ΔΔCT, SESN1 (SU-DHL4 cells): −2.258
- ΔΔCT, SLC10A6 (SU-DHL4 cells): −4.180
- ΔΔCT, SLC19A2 (SU-DHL4 cells): −1.612
- ΔΔCT, SLC22A5 (SU-DHL4 cells): −0.775
- ΔΔCT, SNTA1 (SU-DHL4 cells): −0.847
- ΔΔCT, SPSB1 (SU-DHL4 cells): −0.624
- ΔΔCT, STAT5B (SU-DHL4 cells): −0.298
- ΔΔCT, TBL1XR1 (SU-DHL4 cells): −0.456
- ΔΔCT, TNFAIP3 (SU-DHL4 cells): 0.339
- ΔΔCT, TSC22D3 (SU-DHL4 cells): −0.002
- ΔΔCT, USP2 (SU-DHL4 cells): −0.688
- ΔΔCT, USPS4 (SU-DHL4 cells): 6.193
- ΔΔCT, ZFP36 (SU-DHL4 cells): −0.262
- ΔΔCT, ZHX3 (SU-DHL4 cells): −1.047
- ΔΔCT (RL cells; ADARB1 mRNA): −1.672
- ΔΔCT (RL cells; AFF1 mRNA): −2.005
- ΔΔCT (RL cells; AK2 mRNA): 0.268
- ΔΔCT (RL cells; ANGPTL4 mRNA): −0.935
- ΔΔCT (RL cells; ANXA4 mRNA): −0.562
- ΔΔCT (RL cells; ARID68 mRNA): −1.220
- ΔΔCT (RL cells; ATF4 mRNA): 0.003
- ΔΔCT (RL cells; CEBPB mRNA): −0.004
- ΔΔCT (RL cells; COL4A2 mRNA): −0.773
- ΔΔCT (RL cells; CREB1 mRNA): 0.205
- ΔΔCT (RL cells; CREB3L4 mRNA): −0.760
- ΔΔCT (RL cells; CREB3 mRNA): −0.189
- ΔΔCT (RL cells; CYB561 mRNA): −1.477
- ΔΔCT (RL cells; DDIT4 mRNA): 0.461
- ΔΔCT (RL cells; DUSP1 mRNA): −0.321
- ΔΔCT (RL cells; EDN1 mRNA): −1.208
- ΔΔCT (RL cells; EHD3 mRNA): −0.962
- ΔΔCT (RL cells; FK8PS mRNA): 0.388
- ΔΔCT (RL cells; GDPD1 mRNA): −0.772
- ΔΔCT (RL cells; GLUL mRNA): −2.614
- ΔΔCT (RL cells; GOT1 mRNA): 0.518
- ΔΔCT (RL cells; H6PD mRNA): −0.673
- ΔΔCT (RL cells; HNRPLL mRNA): 0.309
- ΔΔCT (RL cells; IL1RN mRNA): −1.881
- ΔΔCT (RL cells; IL6R mRNA): −0.515
- ΔΔCT (RL cells; IL10 mRNA): −1.432
- ΔΔCT (RL cells; KLF13 mRNA): −0.566
- ΔΔCT (RL cells; LOX mRNA): −0.580
- ΔΔCT (RL cells; MERTK mRNA): −4.419
- ΔΔCT (RL cells; MT2A mRNA): 0.577
- ΔΔCT (RL cells; NFKBIA mRNA): 0.854
- ΔΔCT (RL cells; NR3C1 mRNA): 0.067
- ΔΔCT (RL cells; PDCD7 mRNA): 0.006
- ΔΔCT (RL cells; PDP1 mRNA): −0.989
- ΔΔCT (RL cells; PER1 mRNA): 0.384
- ΔΔCT (RL cells; PER2 mRNA): −0.361
- ΔΔCT (RL cells; PIK3R1 mRNA): 0.373
- ΔΔCT (RL cells; PLEKHF1 mRNA): 0.050
- ΔΔCT (RL cells; POU2F1 mRNA): −0.027
- ΔΔCT (RL cells; POU2F2 mRNA): −0.584
- ΔΔCT (RL cells; RA5A3 mRNA): −0.009
- ΔΔCT (RL cells; RGS2 mRNA): −0.162
- ΔΔCT (RL cells; SESN1 mRNA): −1.697
- ΔΔCT (RL cells; SGK1 mRNA): 0.801
- ΔΔCT (RL cells; SLC19A2 mRNA): −0.797
- ΔΔCT (RL cells; SNTA1 mRNA): 0.040
- ΔΔCT (RL cells; SPHK1 mRNA): −0.781
- ΔΔCT (RL cells; SPSB1 mRNA): −0.865
- ΔΔCT (RL cells; STAT5A mRNA): 0.001
- ΔΔCT (RL cells; STAT5B mRNA): −0.094
- ΔΔCT (RL cells; TNF mRNA): −0.837
- ΔΔCT (RL cells; TNFAIP3 mRNA): 0.886
- ΔΔCT (RL cells; USP2 mRNA): −0.139
- ΔΔCT (RL cells; USPS4 mRNA): −0.961
- ΔΔCT (RL cells; VDR mRNA): −2.658
- ΔΔCT (RL cells; ZHX3 mRNA): 4.661
- ΔΔCT (RL cells; ZNF281 mRNA): 0.046
